Experimental findings from patent US9458198B1, “Cyclic peptide-based NPR-B agonists” (priority 2009, dated 2016) are described below.

Where a SMILES comes first, the peptide text is derived from it. Bridges are numbered along the chain shown (N, C = ends). [ ]: non-standard residue; d: D form. The star is where a group is joined. Hexanoyl = CCCCCC(=O)* Where only a bound is given, the exact number is not on record here.

For the first assay, the target named is T1, NPR-B (Homo sapiens, UniProt P20594).
T1 construct: a functional assay using endogenously NPR-B expressing GTM-3 cells; endogenous in cells; host or cells: GTM-3 (transformed human trabecular meshwork cells)
T1 sequence (P20594 23-1047): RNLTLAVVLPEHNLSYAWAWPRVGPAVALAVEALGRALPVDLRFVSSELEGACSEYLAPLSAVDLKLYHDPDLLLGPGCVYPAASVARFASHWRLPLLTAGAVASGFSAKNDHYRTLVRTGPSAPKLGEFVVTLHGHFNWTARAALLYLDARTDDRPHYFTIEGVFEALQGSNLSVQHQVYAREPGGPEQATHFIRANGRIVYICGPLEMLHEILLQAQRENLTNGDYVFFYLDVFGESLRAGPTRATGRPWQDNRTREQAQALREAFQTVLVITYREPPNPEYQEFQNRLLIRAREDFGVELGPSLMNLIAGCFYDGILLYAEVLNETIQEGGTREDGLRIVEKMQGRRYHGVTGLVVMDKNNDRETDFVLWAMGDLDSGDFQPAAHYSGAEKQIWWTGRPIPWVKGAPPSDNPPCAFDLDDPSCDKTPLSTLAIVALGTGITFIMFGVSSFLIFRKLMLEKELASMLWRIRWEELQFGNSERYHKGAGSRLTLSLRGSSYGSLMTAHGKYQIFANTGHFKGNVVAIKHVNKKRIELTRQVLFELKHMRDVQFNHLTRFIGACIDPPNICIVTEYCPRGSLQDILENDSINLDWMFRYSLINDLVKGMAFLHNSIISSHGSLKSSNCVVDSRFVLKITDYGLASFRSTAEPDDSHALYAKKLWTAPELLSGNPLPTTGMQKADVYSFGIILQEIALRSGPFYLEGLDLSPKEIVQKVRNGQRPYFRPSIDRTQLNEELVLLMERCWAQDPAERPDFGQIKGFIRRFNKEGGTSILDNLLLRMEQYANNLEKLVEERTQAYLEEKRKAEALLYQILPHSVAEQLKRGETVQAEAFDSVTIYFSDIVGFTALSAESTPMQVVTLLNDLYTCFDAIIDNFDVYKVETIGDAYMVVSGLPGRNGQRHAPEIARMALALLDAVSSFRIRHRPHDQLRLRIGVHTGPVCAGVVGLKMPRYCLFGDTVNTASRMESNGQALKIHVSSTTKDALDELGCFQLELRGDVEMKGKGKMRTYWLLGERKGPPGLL
The assay can be described thus: NPR-B induced production of cyclic GMP in GTM-3 cells. The class given is cell-based. The settings on record: Activity (group): NPR-B activation, EC50 and Emax (CNP = 100%). The method, then: The efficacy and potency of compounds to activate NPR-B were evaluated in a functional assay using endogenously NPR-B expressing GTM-3 cells (Pang et al. 1994, Curr Eye Res 13:51-63). In this assay the dose dependent production of cyclic GMP (cGMP) is determined and Emax (maximum activation) and EC50 values are calculated.
The cell culture medium is aspirated and each well is washed with 200 μl DMEM/Ham's F12=Medium (Gibco). Then, 200 μl Medium supplemented with 1 mM IBMX (3-Isobutyl-1-methyl-xanthin, Sigma) is added to each well and incubated for 15 min. at room temperature.
Final compound concentrations are in the range from 45 μM to 20 nM.
As a reminder, the EC50 is the concentration giving half of the maximal effect. As to `CC[C@H](C)[C@@H]1NC(=O)[C@H](CCCNC(=N)N)NC(=O)[C@H](CC(=O)O)NC(=O)[C@H](CC(C)C)NC(=O)[C@H](CCCCN)NC(=O)[C@H](CC(C)C)NC(=O)CNC(=O)[C@H](Cc2ccccc2)NC(=O)[C@@H](C)NC(=O)[C@@H](NC(=O)CCC(C)C)CSSC[C@@H](C(N)=O)NC(=O)[C@H](CO)NC1=O` [compound 64], the concentration for a half-maximal effect (EC50) was under 1 µM.
The compound `CC[C@H](C)[C@@H]1NC(=O)[C@H](CCCNC(=N)N)NC(=O)[C@H](CC(=O)O)NC(=O)[C@H](CC(C)C)NC(=O)[C@H](CCCCN)NC(=O)[C@H](CC(C)C)NC(=O)CNC(=O)[C@H](Cc2ccccc2)NC(=O)[C@@H](C)NC(=O)[C@@H](NC(=O)CCc2ccccc2)CSSC[C@@H](C(N)=O)NC(=O)[C@H](CO)NC1=O` [compound 70] returned an EC50 of under 1 µM.
On the same count and under the same terms, then `CC[C@H](C)[C@@H]1NC(=O)[C@H](CCCNC(=N)N)NC(=O)[C@H](CC(=O)O)NC(=O)[C@H](CC(C)C)NC(=O)[C@H](CCCCN)NC(=O)[C@H](CC(C)C)NC(=O)CNC(=O)[C@H](Cc2ccccc2)NC(=O)[C@@H](C)NC(=O)[C@@H](NC(=O)CC(C)C)CSSC[C@@H](C(N)=O)NC(=O)[C@H](CO)NC1=O` [compound 63], with under 5 µM.

The same assay, now with this note: Activity (group): NPR-B activation, EC50 and Emax (CNP = 100%), GTM-3 cells; group needs both EC50 and Emax criteria, checked A then B then C.
As to `CC[C@H](C)[C@@H]1NC(=O)[C@H](CCCNC(=N)N)NC(=O)[C@H](CC(=O)O)NC(=O)[C@H](CC(C)C)NC(=O)[C@@H]2CCCN2C(=O)[C@H](CC(C)C)NC(=O)CNC(=O)[C@H](Cc2ccccc2)NC(=O)[C@@H](Cc2c[nH]cn2)NC(=O)[C@@H](NC(=O)[C@@H](N)CCSC)CSSC[C@@H](C(N)=O)NC(=O)[C@H](CO)NC1=O` [compound 41] (H-MC[dH]FGLPLDRISC-NH2; disulfide 2-13), the EC50 was under 5 µM.
Still for that read-out and setting: then `CC[C@H](C)[C@@H]1NC(=O)[C@H](CCCNC(=N)N)NC(=O)[C@H](CC(=O)O)NC(=O)[C@H](CC(C)C)NC(=O)[C@H](CCCCN)NC(=O)[C@H](CC(C)C)NC(=O)CNC(=O)[C@H](Cc2ccccc2)NC(=O)[C@@H](C)NC(=O)[C@@H](N)CSSC[C@@H](C(N)=O)NC(=O)[C@H](CO)NC1=O` [compound 73], with under 15 µM; and `CCCCCC(=O)N[C@H]1CSSC[C@@H](C(N)=O)NC(=O)[C@H](CO)NC(=O)[C@H]([C@@H](C)CC)NC(=O)[C@H](CCCNC(=N)N)NC(=O)[C@H](CC(=O)O)NC(=O)[C@H]([C@@H](C)CC)NC(=O)[C@@H]2CCCN2C(=O)[C@H](CC(C)C)NC(=O)CNC(=O)[C@H](Cc2ccccc2)NC(=O)[C@@H](C)NC1=O` [compound 88] (Hexanoyl-C[dA]FGLPIDRISC-NH2; disulfide 1-12), with under 1 µM; and `CC[C@H](C)[C@@H]1NC(=O)[C@H](CCCNC(=N)N)NC(=O)[C@H](CC(=O)O)NC(=O)[C@H](CC(C)C)NC(=O)[C@H](CCCCN)NC(=O)[C@H](CC(C)C)NC(=O)CNC(=O)[C@H](Cc2ccccc2)NC(=O)[C@@H](C)NC(=O)[C@@H](NC(=O)c2ccccc2)CSSC[C@@H](C(N)=O)NC(=O)[C@H](CO)NC1=O` [compound 66], with under 5 µM.

Still in this assay, the particulars now being: GTM-3 cells; group needs both EC50 and Emax criteria, checked A then B then C; read-out: Activity (group): NPR-B activation, EC50 and Emax (CNP = 100%).
As to `CCCCCC(=O)N[C@H]1CSSC[C@@H](C(N)=O)NC(=O)[C@H](CO)NC(=O)[C@H]([C@@H](C)CC)NC(=O)[C@H](CCCNC(=N)N)NC(=O)[C@H](CC(=O)O)NC(=O)[C@H]([C@@H](C)CC)NC(=O)[C@H](CCCCN)NC(=O)[C@H](CC(C)C)NC(=O)CNC(=O)[C@H](Cc2ccccc2)NC(=O)[C@@H](C)NC1=O` [compound 87] (Hexanoyl-C[dA]FGLKIDRISC-NH2; disulfide 1-12), the EC50 is under 1 µM.
Regarding `CSCC[C@H](N)C(=O)N[C@H]1CSSC[C@@H](C(N)=O)NC(=O)[C@H](CO)NC(=O)[C@H](CC(C)C)NC(=O)[C@H](CCCNC(=N)N)NC(=O)[C@H](CC(=O)O)NC(=O)[C@H](CC(C)C)NC(=O)[C@H](CCCCN)NC(=O)[C@H](CC(C)C)NC(=O)CNC(=O)[C@H](Cc2ccccc2)NC(=O)[C@@H](C)NC1=O` [compound 56] (H-MC[dA]FGLKLDRLSC-NH2; disulfide 2-13), the concentration giving a half-maximal response (EC50) is under 5 µM.
Still for that read-out and setting: the result for `CC[C@H](C)[C@@H]1NC(=O)[C@H](CCCNC(=N)N)NC(=O)[C@H](CC(=O)O)NC(=O)[C@H](CC(C)C)NC(=O)[C@H](CCCCN)NC(=O)[C@H](CC(C)C)NC(=O)CNC(=O)[C@H](Cc2ccccc2)NC(=O)[C@H](Cc2c[nH]cn2)NC(=O)[C@@H](NC(=O)[C@@H](N)CCSC)CSSC[C@@H](C(=O)N[C@@H](Cc2ccc(O)cc2)C(N)=O)NC(=O)[C@H](CO)NC1=O` [compound 6] (H-MCHFGLKLDRISCY-NH2; disulfide 2-13) reads under 5 µM.
On the same count and under the same terms, the result for `CC[C@H](C)[C@@H]1NC(=O)[C@H](CCCNC(=N)N)NC(=O)[C@H](CC(=O)O)NC(=O)[C@H](CC(C)C)NC(=O)[C@H](CCCNC(=N)N)NC(=O)[C@H](CC(C)C)NC(=O)CNC(=O)[C@H](Cc2ccccc2)NC(=O)[C@@H](Cc2c[nH]cn2)NC(=O)[C@@H](NC(=O)[C@@H](N)CCSC)CSSC[C@@H](C(N)=O)NC(=O)[C@H](CO)NC1=O` [compound 42] (H-MC[dH]FGLRLDRISC-NH2; disulfide 2-13) reads under 5 µM; that for `CSCC[C@H](N)C(=O)N[C@H]1CSSC[C@@H](C(N)=O)NC(=O)[C@H](CO)NC(=O)[C@H](C(C)C)NC(=O)[C@H](CCCNC(=N)N)NC(=O)[C@H](CC(=O)O)NC(=O)[C@H](CC(C)C)NC(=O)[C@H](CCCCN)NC(=O)[C@H](CC(C)C)NC(=O)CNC(=O)[C@H](Cc2ccccc2)NC(=O)[C@@H](C)NC1=O` [compound 57] (H-MC[dA]FGLKLDRVSC-NH2; disulfide 2-13), under 5 µM; that for `CCCCCC(=O)N[C@H]1CSSC[C@@H](C(N)=O)NC(=O)[C@H](CO)NC(=O)[C@H]([C@@H](C)CC)NC(=O)[C@H](CCCNC(=N)N)NC(=O)[C@H](CC(=O)O)NC(=O)[C@H](CC(C)C)NC(=O)[C@H](CCCCN)NC(=O)[C@H](CC(C)C)NC(=O)CNC(=O)[C@H](Cc2cccc(C(F)(F)F)c2)NC(=O)[C@@H](C)NC1=O` [compound 105], under 15 µM.
The same measure, in the same setting: then `CC[C@H](C)[C@@H]1NC(=O)[C@H](CCCNC(=N)N)NC(=O)[C@H](CC(=O)O)NC(=O)[C@H](CC(C)C)NC(=O)[C@H](CCCCN)NC(=O)[C@H](CC(C)C)NC(=O)CNC(=O)[C@H](Cc2ccccc2)NC(=O)[C@H](Cc2c[nH]cn2)NC(=O)[C@@H](NC(=O)[C@@H](N)CCSC)CSSC[C@@H](C(=O)N[C@@H](CC(N)=O)C(=O)N[C@@H](CCCNC(=N)N)C(N)=O)NC(=O)[C@H](CO)NC1=O` [compound 22] (H-MCHFGLKLDRISCNR-NH2; disulfide 2-13), with under 5 µM.
On to `CC[C@H](C)[C@@H]1NC(=O)[C@H](CCCNC(=N)N)NC(=O)[C@H](CC(=O)O)NC(=O)[C@H](CC(C)C)NC(=O)[C@H](CCCCN)NC(=O)[C@H](CC(C)C)NC(=O)CNC(=O)[C@H](Cc2ccccc2)NC(=O)[C@@H](Cc2ccccc2)NC(=O)[C@@H](NC(=O)[C@@H](N)CCSC)CSSC[C@@H](C(N)=O)NC(=O)[C@H](CO)NC1=O` [compound 45], for which the EC50 was under 15 µM.
The same measure, in the same setting: then `CC[C@H](C)[C@@H]1NC(=O)[C@H](CCCNC(=N)N)NC(=O)[C@H](CC(=O)O)NC(=O)[C@H]([C@@H](C)CC)NC(=O)[C@H](CCCCN)NC(=O)[C@H](CC(C)C)NC(=O)CNC(=O)[C@H](Cc2ccccc2)NC(=O)[C@@H](C)NC(=O)[C@@H](NC(=O)[C@@H](N)CCSC)CSSC[C@@H](C(N)=O)NC(=O)[C@H](CO)NC1=O` [compound 53] (H-MC[dA]FGLKIDRISC-NH2; disulfide 2-13), with under 1 µM; and `CC[C@H](C)[C@@H]1NC(=O)[C@H](CCCNC(=N)N)NC(=O)[C@H](CC(=O)O)NC(=O)[C@H](CC(C)C)NC(=O)[C@H](CCCCN)NC(=O)[C@H](C)NC(=O)CNC(=O)[C@H](Cc2ccccc2)NC(=O)[C@H](Cc2c[nH]cn2)NC(=O)[C@@H](NC(=O)[C@@H](N)CCSC)CSSC[C@@H](C(N)=O)NC(=O)[C@H](CO)NC1=O` [compound 9] (H-MCHFGAKLDRISC-NH2; disulfide 2-13), with under 15 µM.
